{"source": "paper PMC11827123", "about": "(Journal of medicinal chemistry, 2023)", "key": {"[1]": {"system": "RBC", "experiment": "RBC lysis in vitro assay", "assay_type": "cell-based"}, "[2]": {"system": "mouse red blood cells (RBCs)", "experiment": "In vitro hemolysis assay, mouse RBCs", "assay_type": "cell-based"}, "[3]": {"system": "human red blood cells (RBCs)", "experiment": "In vitro hemolysis assay, human RBCs", "assay_type": "cell-based"}, "[4]": {"experiment": "Microsomal", "assay_type": "in vitro ADME, human", "details": "result in words"}, "[5]": {"experiment": "FeSSIF solubility", "assay_type": "physicochemical", "details": "result in words"}, "[6]": {"experiment": "Mouse pharmacokinetics, oral and intravenous dosing", "details": "mice, PK study with oral and iv dosing"}, "[7]": {"system": "HepG2 cell line", "experiment": "LipidTOX Red phospholipidosis imaging assay", "assay_type": "cell-based"}, "[8]": {"system": "HepG2 cell line", "experiment": "HepG2 viability", "assay_type": "cell-based"}, "[9]": {"system": "MOLT4 cells", "experiment": "Quantitative MS degradation proteomics in MOLT4 cells", "details": "6 h treatment"}, "[10]": {"target": "HiBiT-tagged v3 EML4-ALK wild-type (WT) (Homo sapiens, UniProt Q9HC35+Q9UM73)", "sequence (Q9UM73 1058-1620 limits assumed, one chain of several)": "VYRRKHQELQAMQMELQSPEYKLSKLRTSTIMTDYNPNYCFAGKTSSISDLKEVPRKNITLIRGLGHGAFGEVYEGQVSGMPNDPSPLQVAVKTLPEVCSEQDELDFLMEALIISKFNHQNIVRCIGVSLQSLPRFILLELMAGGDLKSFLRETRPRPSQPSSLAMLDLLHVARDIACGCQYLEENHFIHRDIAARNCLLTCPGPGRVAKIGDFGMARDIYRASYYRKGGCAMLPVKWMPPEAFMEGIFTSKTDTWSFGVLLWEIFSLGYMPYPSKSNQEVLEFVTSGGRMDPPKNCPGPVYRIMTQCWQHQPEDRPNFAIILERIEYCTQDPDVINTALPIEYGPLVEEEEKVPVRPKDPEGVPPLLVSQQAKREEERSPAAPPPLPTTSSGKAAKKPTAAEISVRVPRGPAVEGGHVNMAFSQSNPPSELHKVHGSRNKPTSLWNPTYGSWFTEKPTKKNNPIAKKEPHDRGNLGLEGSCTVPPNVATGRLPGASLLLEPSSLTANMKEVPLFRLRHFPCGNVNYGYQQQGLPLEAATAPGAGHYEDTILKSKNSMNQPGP", "experiment": "EML4-ALK HiBiT degradation assay, WT", "details": "result in words"}, "[11]": {"target": "HiBiT-tagged v3 EML4-ALK G1202R (Homo sapiens, UniProt Q9HC35+Q9UM73, G1202R)", "sequence (Q9UM73 1058-1620 G1202R limits assumed, one chain of several)": "as the sequence (Q9UM73 1058-1620 limits assumed, one chain of several) above, with G145R counted along it", "experiment": "EML4-ALK HiBiT degradation assay, G1202R", "details": "Ba/F3, result in words"}, "[12]": {"system": "HiBiT-tagged v3 EML4-ALK (WT and clinically relevant mutations)", "experiment": "EML4-ALK HiBiT degradation assay, general / clinically relevant mutations", "details": "result in words"}}}
{"smiles": "COc1cc(C2CCN(CCCCCC#Cc3cccc4c3CN(C3CCC(=O)NC3=O)C4=O)CC2)c(C)cc1Nc1ncc(Cl)c(Nc2ccccc2S(=O)(=O)C(C)C)n1", "note": "(centres unmarked) [CPD-1108, 3-(4-(7-(4-(4-((5-Chloro-4-((2-(isopropylsulfonyl)phenyl)amino)pyrimidin-2-yl)amino)-5-methoxy-2-methylphenyl)piperidin-1-yl)hept-1-yn-1-yl)-1-oxoisoindolin-2-yl)piperidine-2,6-dione]", "values": [{"measurement": "RBC lysis in vitro", "setting": "[1]", "value": "weak positive"}]}
{"smiles": "COc1cc(CCNCCCCCC#Cc2cccc3c2CN(C2CCC(=O)NC2=O)C3=O)c(C)cc1Nc1ncc(Cl)c(Nc2ccccc2S(=O)(=O)C(C)C)n1", "note": "(centres unmarked) [CPD-985, 3-(4-(7-((4-((5-Chloro-4-((2-(isopropylsulfonyl)-phenyl)amino)pyrimidin-2-yl)amino)-5-methoxy-2-methylphenethyl)amino)hept-1-yn-1-yl)-1-oxoisoindolin-2-yl)piperidine-2,6-dione]", "values": [{"measurement": "in vitro hemolysis", "setting": "[2]", "value": "confirmed"}, {"measurement": "in vitro hemolysis", "setting": "[3]", "value": "confirmed"}, {"measurement": "metabolic / microsomal stability", "setting": "[4]", "value": "slightly improved metabolic stability relative to CPD-198"}, {"measurement": "solubility in fed state simulated intestinal fluid (FeSSIF)", "setting": "[5]", "value": "good solubility"}, {"measurement": "hemolysis in vivo", "setting": "[6]", "value": "hemolysis was also observed"}]}
{"smiles": "COc1cc(C2CCN(CC3CN(c4ccc5c(c4)C(=O)N(C4CCC(=O)NC4=O)C5=O)C3)CC2)c(C)cc1Nc1ncc(Cl)c(Nc2ccccc2S(=O)(=O)C(C)C)n1", "note": "(centres unmarked) [CPD-1224, 5-{3-[(4-{4-[(5-Chloro-4-{[2-(propane-2-sulfonyl)phenyl]amino}pyrimidin-2-yl)amino]-5-methoxy-2-methylphenyl}piperidin-1-yl)methyl]azetidin-1-yl}−2-(2,6-dioxopiperidin-3-yl)-2,3-dihydro-1H-isoindole-1,3-dione]", "values": [{"measurement": "RBC lysis in vitro", "setting": "[1]", "value": "did not possess RBC lysis"}, {"measurement": "metabolic / microsomal stability", "setting": "[4]", "value": "improved metabolic stability relative to the isoindolinone congener CPD-1793"}, {"measurement": "phospholipidosis (phospholipid accumulation)", "setting": "[7]", "value": "did not possess these effects"}, {"measurement": "cytotoxicity", "setting": "[8]", "value": "did not possess these effects"}]}
{"smiles": "Cc1cc(Nc2ncc(Cl)c(Nc3ccccc3S(=O)(=O)C(C)C)n2)c(OC(C)C)cc1C1CCNCC1", "note": "[ceritinib, reference compound]", "values": [{"measurement": "phospholipidosis (phospholipid accumulation)", "setting": "[7]", "value": "confirmed the phospholipidosis"}, {"measurement": "cytotoxicity", "setting": "[8]", "value": "cytotoxicity"}]}
{"smiles": "COc1cc(C2CCN(CCCC#Cc3cccc4c3CN(C3CCC(=O)NC3=O)C4=O)CC2)c(C)cc1Nc1ncc(Cl)c(Nc2ccccc2S(=O)(=O)C(C)C)n1", "note": "(centres unmarked) [CPD-1131]", "values": [{"measurement": "RBC lysis in vitro", "setting": "[1]", "value": "RBC lysis was avoided"}, {"measurement": "metabolic / microsomal stability", "setting": "[4]", "value": "good microsomal stability"}, {"measurement": "proteins degraded to any significant extent", "setting": "[9]", "value": "five"}]}
{"smiles": "Cc1cc(Nc2ncc(Cl)c(Nc3ccccc3S(=O)(=O)C(C)C)n2)c(OC(C)C)cc1C1CCN(CCOCCOCCNC(=O)CNc2cccc3c2C(=O)N(C2CCC(=O)NC2=O)C3=O)CC1", "note": "(centres unmarked) [TL13–112]", "values": [{"measurement": "shift between cellular ALK occupancy (NanoBRET) and degradation potency, WT", "setting": "[10]", "value": "only a small shift"}, {"measurement": "degradation activity for G1202R mutation", "setting": "[11]", "value": "low degradation activity"}]}
{"smiles": "COc1cc(C2CCN(CC3CN(c4ccc5c(c4)C(=O)N(C4CCC(=O)N(C)C4=O)C5=O)C3)CC2)c(C)cc1Nc1ncc(Cl)c(Nc2ccccc2S(=O)(=O)C(C)C)n1", "note": "(centres unmarked) [CPD-1224NC, 5-(3-((4-(4-((5-Chloro-4-((2-(isopropylsulfonyl)-phenyl)amino)pyrimidin-2-yl)amino)-5-methoxy-2-methylphenyl)piperidin-1-yl)methyl)azetidin-1-yl)-2-(1-methyl-2,6-dioxopiperidin-3-yl)isoindoline-1,3-dione]", "values": [{"measurement": "EML4-ALK degradation potency / efficacy (general, clinical mutations)", "setting": "[12]", "value": "retains weak degradation activity"}]}
{"smiles": "COc1cc(CCNCCCCCC#Cc2cccc3c2C(=O)N(C2CCC(=O)NC2=O)C3=O)c(C)cc1Nc1ncc(Cl)c(Nc2ccccc2S(=O)(=O)C(C)C)n1", "note": "(centres unmarked) [CPD-198, 4-(7-((4-((5-Chloro-4-((2-(isopropylsulfonyl)-phenyl)amino)pyrimidin-2-yl)amino)-5-methoxy-2-methylphenethyl)amino)hept-1-yn-1-yl)-2-(2,6-dioxopiperidin-3-yl)isoindoline-1,3-dione]", "values": [{"measurement": "RBC lysis in vitro", "setting": "[1]", "value": "caused RBC lysis"}]}
{"smiles": "CCc1cc2c(cc1N1CCN(CC3CN(c4ccc5c(c4)C(=O)N(C4CCC(=O)NC4=O)C5=O)C3)CC1)C(C)(C)c1[nH]c3cc(C#N)ccc3c1C2=O", "note": "(centres unmarked) [CPD-1403, 8-(4-((1-(2-(2,6-Dioxopiperidin-3-yl)-1,3-dioxoisoindolin-5-yl)azetidin-3-yl)methyl)piperazin-1-yl)-9-ethyl-6,6-dimethyl-11-oxo-6,11-dihydro-5H-benzo[b]carbazole-3-carbonitrile]", "values": [{"measurement": "metabolic / microsomal stability", "setting": "[4]", "value": "high microsomal stability"}]}
